Measured values from US20090131431A1, “Pyrazolo[3,4-b]pyridine compounds, and their use as a PDE4 inhibitors” (priority 2005, published 2009).

Target: T1, PDE4B (human recombinant) (Homo sapiens, UniProt Q07343)
T1 construct: made in house
Assay: Inhibition of PDE4B activity: SPA and/or Fluorescence Polarisation (FP) assay
Assay type: biochemical
Settings: one reading (n=1) or average of 2 or more readings, read-out: PDE4B pIC50 (±about 0.5) (converted)
Outline: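 Human recombinant PDE4B activity measured by SPA with [3H]cAMP at about 10 nM, 1 h at ambient temperature, enzyme set for ≤20% substrate hydrolysis, or by IMAP FP with Fl-cAMP at about 40 nM, 40 min at ambient temperature under linear conditions. Inhibition curves fitted; values reported as pIC50.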

T1 sequence (Q07343 1-564 isoform Q07343-2): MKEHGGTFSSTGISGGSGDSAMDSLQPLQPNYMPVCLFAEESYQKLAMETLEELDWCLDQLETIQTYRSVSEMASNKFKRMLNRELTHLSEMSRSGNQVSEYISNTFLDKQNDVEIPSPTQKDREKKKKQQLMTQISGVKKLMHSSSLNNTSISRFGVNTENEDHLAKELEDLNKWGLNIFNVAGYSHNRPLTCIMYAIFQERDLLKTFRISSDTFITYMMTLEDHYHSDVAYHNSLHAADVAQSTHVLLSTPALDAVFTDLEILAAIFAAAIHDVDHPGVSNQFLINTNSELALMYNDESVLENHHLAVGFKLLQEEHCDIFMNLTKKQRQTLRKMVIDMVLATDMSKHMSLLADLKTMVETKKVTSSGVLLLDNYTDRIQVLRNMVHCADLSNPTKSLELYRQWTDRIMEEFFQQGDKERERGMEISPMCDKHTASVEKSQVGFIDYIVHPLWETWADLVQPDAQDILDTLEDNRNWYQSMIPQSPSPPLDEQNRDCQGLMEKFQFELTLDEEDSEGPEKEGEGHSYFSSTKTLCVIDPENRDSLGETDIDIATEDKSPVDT

| IC50 [nM] | Structure (SMILES) |
| --- | --- |
| 0.126 to 1 | CCc1nc2c(cnn2CC)c(NC2CCOCC2)c1CNC(=O)c1cccc2c1CCC2 [Example 189, N-{[1,6-diethyl-4-(tetrahydro-2H-pyran-4-ylamino)-1H-pyrazolo[3,4-b]pyridin-5-yl]methyl}-2,3-dihydro-1H-indene-4-carboxamide] |
| 0.01 to 0.1 | CCc1nc2c(cnn2CC)c(NC2CCOCC2)c1CNC(=O)c1ccc(-n2cccc2)nc1 [Example 148, N-{[1,6-diethyl-4-(tetrahydro-2H-pyran-4-ylamino)-1H-pyrazolo[3,4-b]pyridin-5-yl]methyl}-6-(1H-pyrrol-1-yl)-3-pyridinecarboxamide] |
| 0.126 to 1 | CCn1ncc2c(NC3CCOCC3)c(CN3Cc4ccccc4C3=O)c(C)nc21 [Example 300, 2-{[1-ethyl-6-methyl-4-(tetrahydro-2H-pyran-4-ylamino)-1H-pyrazolo[3,4-b]pyridin-5-yl]methyl}-2,3-dihydro-1H-isoindol-1-one] |
| 0.01 to 0.1 | CCc1nc2c(cnn2CC)c(NC2CCOCC2)c1CNC(=O)c1cccc(N2CCOCC2)c1 [Example 190, N-{[1,6-diethyl-4-(tetrahydro-2H-pyran-4-ylamino)-1H-pyrazolo[3,4-b]pyridin-5-yl]methyl}-3-(4-morpholinyl)benzamide] |
| 0.01 to 0.1 | CCc1nc2c(cnn2CC)c(NC2CCN(C(N)=O)CC2)c1CNC(=O)c1ccc(NC(C)=O)cc1 [Example 242, 4-({5-[({[4-(acetylamino)phenyl]carbonyl}amino)methyl]-1,6-diethyl-1H-pyrazolo[3,4-b]pyridin-4-yl}amino)-1-piperidinecarboxamide] |
| 0.126 to 1 | CCn1ncc2c(NC3CCOCC3)c(CN3Cc4ccc(F)cc4C3=O)c(C)nc21 [Example 314, 2-{[1-ethyl-6-methyl-4-(tetrahydro-2H-pyran-4-ylamino)-1H-pyrazolo[3,4-b]pyridin-5-yl]methyl}-6-fluoro-2,3-dihydro-1H-isoindol-1-one] |
| 0.126 to 1 | CCn1ncc2c(NC3CCOCC3)c(CNC(=O)c3ccn(C)n3)c(C)nc21 [Example 229, N-{[1-ethyl-6-methyl-4-(tetrahydro-2H-pyran-4-ylamino)-1H-pyrazolo[3,4-b]pyridin-5-yl]methyl}-1-methyl-1H-pyrazole-3-carboxamide] |
| 0.126 to 1 | CCn1ncc2c(NC3CCOCC3)c(CNC(=O)c3ccc(S(C)(=O)=O)cc3)c(C)nc21 [Example 124, N-{[1-ethyl-6-methyl-4-(tetrahydro-2H-pyran-4-ylamino)-1H-pyrazolo[3,4-b]pyridin-5-yl]methyl}-4-(methylsulfonyl)benzamide] |
| 0.126 to 1 | CCc1nc2c(cnn2CC)c(NC2CCOCC2)c1CNC(=O)c1nc(C)oc1C(F)(F)F [Example 155, N-{[1,6-diethyl-4-(tetrahydro-2H-pyran-4-ylamino)-1H-pyrazolo[3,4-b]pyridin-5-yl]methyl}-2-methyl-5-(trifluoromethyl)-1,3-oxazole-4-carboxamide] |
| 0.126 to 1 | CCc1nc2c(cnn2CC)c(NC2CCOCC2)c1CNC(=O)c1cnc(C)nc1 [Example 331, N-{[1,6-diethyl-4-(tetrahydro-2H-pyran-4-ylamino)-1H-pyrazolo[3,4-b]pyridin-5-yl]methyl}-2-methyl-5-pyrimidinecarboxamide] |
| 0.01 to 0.1 | CCc1nc2c(cnn2CC)c(NC2CCOCC2)c1CNC(=O)c1cc(C)on1 [Example 233, N-{[1,6-diethyl-4-(tetrahydro-2H-pyran-4-ylamino)-1H-pyrazolo[3,4-b]pyridin-5-yl]methyl}-5-methyl-3-isoxazolecarboxamide] |
| 0.126 to 1 | CCc1nc2c(cnn2CC)c(NC2CCOCC2)c1CNC(=O)c1ccnnc1 [Example 150, N-{[1,6-diethyl-4-(tetrahydro-2H-pyran-4-ylamino)-1H-pyrazolo[3,4-b]pyridin-5-yl]methyl}-4-pyridazinecarboxamide] |
| 0.126 to 1 | CCc1nc2c(cnn2CC)c(NC2CCOCC2)c1CNC(=O)N1CCCCC1 [Example 290, N-{[1,6-diethyl-4-(tetrahydro-2H-pyran-4-ylamino)-1H-pyrazolo[3,4-b]pyridin-5-yl]methyl}-1-piperidinecarboxamide] |
| 0.126 to 1 | CCn1ncc2c(NC3CCOCC3)c(CNC(=O)c3ccco3)c(C)nc21 [Example 218, N-{[1-ethyl-6-methyl-4-(tetrahydro-2H-pyran-4-ylamino)-1H-pyrazolo[3,4-b]pyridin-5-yl]methyl}-2-furancarboxamide] |
| 0.01 to 0.1 | CCc1nc2c(cnn2CC)c(NC2CCOCC2)c1CNC(=O)c1cc(C#N)c(C(C)C)cc1OC [Example 188, 5-cyano-N-{[1,6-diethyl-4-(tetrahydro-2H-pyran-4-ylamino)-1H-pyrazolo[3,4-b]pyridin-5-yl]methyl}-4-(1-methylethyl)-2-(methyloxy)benzamide] |
| 0.01 to 0.1 | CCc1nc2c(cnn2CC)c(NC2CCOCC2)c1CNC(=O)c1ccc(N2CCCC2=O)cc1 [Example 178, N-{[1,6-diethyl-4-(tetrahydro-2H-pyran-4-ylamino)-1H-pyrazolo[3,4-b]pyridin-5-yl]methyl}-4-(2-oxo-1-pyrrolidinyl)benzamide] |

| IC50 [nM] | Structure (SMILES) |
| --- | --- |
| 0.01 to 0.1 | CCc1nc2c(cnn2CC)c(NC2CCN(C(N)=O)CC2)c1CNC(=O)c1ccc(C(C)C)cc1 [Example 208, 4-({1,6-diethyl-5-[({[4-(1-methylethyl)phenyl]carbonyl}amino)methyl]-1H-pyrazolo[3,4-b]pyridin-4-yl}amino)-1-piperidinecarboxamide] |
| 0.01 to 0.1 | CCc1nc2c(cnn2CC)c(NC2CCOCC2)c1CNC(=O)c1cnc(C)s1 [Example 311, N-{[1,6-diethyl-4-(tetrahydro-2H-pyran-4-ylamino)-1H-pyrazolo[3,4-b]pyridin-5-yl]methyl}-2-methyl-1,3-thiazole-5-carboxamide] |
| 0.126 to 1 | CCc1nc2c(cnn2CC)c(NC2CCOCC2)c1CNC(=O)c1coc(C)n1 [Example 310, N-{[1,6-diethyl-4-(tetrahydro-2H-pyran-4-ylamino)-1H-pyrazolo[3,4-b]pyridin-5-yl]methyl}-2-methyl-1,3-oxazole-4-carboxamide] |
| 0.01 to 0.1 | CCc1nc2c(cnn2CC)c(NC2CCOCC2)c1CNC(=O)c1ccc(C(C)C)cc1 [Example 193, N-{[1,6-diethyl-4-(tetrahydro-2H-pyran-4-ylamino)-1H-pyrazolo[3,4-b]pyridin-5-yl]methyl}-4-(1-methylethyl)benzamide] |
| 0.01 to 0.1 | CCc1nc2c(cnn2CC)c(NC2CCOCC2)c1CN1Cc2ccccc2C1=O [Example 199, 2-{[1,6-diethyl-4-(tetrahydro-2H-pyran-4-ylamino)-1H-pyrazolo[3,4-b]pyridin-5-yl]methyl}-2,3-dihydro-1H-isoindol-1-one] |
| 0.01 to 0.1 | CCn1ncc2c(NC3CCN(C(N)=O)CC3)c(CNC(=O)c3ccc(C4CCCC4)cc3)c(C)nc21 [Example 273, 4-{[5-({[(4-cyclopentylphenyl)carbonyl]amino}methyl)-1-ethyl-6-methyl-1H-pyrazolo[3,4-b]pyridin-4-yl]amino}-1-piperidinecarboxamide] |
| 0.126 to 1 | CCn1ncc2c(NC3CCOCC3)c(CNC(=O)c3cncs3)c(C)nc21 [Example 226, N-{[1-ethyl-6-methyl-4-(tetrahydro-2H-pyran-4-ylamino)-1H-pyrazolo[3,4-b]pyridin-5-yl]methyl}-1,3-thiazole-5-carboxamide] |
| 0.01 to 0.1 | CCOc1ccccc1C(=O)NCc1c(CC)nc2c(cnn2CC)c1NC1CCOCC1 [Example 160, N-{[1,6-diethyl-4-(tetrahydro-2H-pyran-4-ylamino)-1H-pyrazolo[3,4-b]pyridin-5-yl]methyl}-2-(ethyloxy)benzamide] |
| 0.01 to 0.1 | CCc1nc2c(cnn2CC)c(NC2CCOCC2)c1CNC(=O)c1cc(C(=O)N(C)c2ccccc2)ccc1OC [Example 182, N˜3˜-{[1,6-diethyl-4-(tetrahydro-2H-pyran-4-ylamino)-1H-pyrazolo[3,4-b]pyridin-5-yl]methyl}-N˜1˜-methyl-4-(methyloxy)-N-˜1˜-phenyl-1,3-benzenedicarboxamide] |
| 0.126 to 1 | CCc1nc2c(cnn2CC)c(NC2CCOCC2)c1CNC(=O)c1cnc(C(C)C)nc1 [Example 346, N-{[1,6-diethyl-4-(tetrahydro-2H-pyran-4-ylamino)-1H-pyrazolo[3,4-b]pyridin-5-yl]methyl}-2-(1-methylethyl)-5-pyrimidinecarboxamide] |
| 0.126 to 1 | CCc1nc2c(cnn2CC)c(NC2CCOCC2)c1CNC(=O)c1ccc(N2CCCCCCC2)cc1 [Example 187, N-{[1,6-diethyl-4-(tetrahydro-2H-pyran-4-ylamino)-1H-pyrazolo[3,4-b]pyridin-5-yl]methyl}-4-(hexahydro-1(2H)-azocinyl)benzamide] |
| 0.126 to 1 | CCc1nc2c(cnn2CC)c(NC2CCOCC2)c1CNC(=O)c1ccccc1 [Example 196, N-{[1,6-diethyl-4-(tetrahydro-2H-pyran-4-ylamino)-1H-pyrazolo[3,4-b]pyridin-5-y]methyl}benzamide] |
| 0.01 to 0.1 | CCc1nc2c(cnn2CC)c(NC2CCOCC2)c1CNC(=O)c1cccc(NC(C)=O)c1 [Example 147, 3-(acetylamino)-N-{[1,6-diethyl-4-(tetrahydro-2H-pyran-4-ylamino)-1H-pyrazolo[3,4-b]pyridin-5-yl]methyl}benzamide] |
| 0.126 to 1 | CCc1nc2c(cnn2CC)c(NC2CCOCC2)c1CNS(=O)(=O)Cc1ccccc1 [Example 169, N-{[1,6-diethyl-4-(tetrahydro-2H-pyran-4-ylamino)-1H-pyrazolo[3,4-b]pyridin-5-yl]methyl}-1-phenylmethanesulfonamide] |
| 0.01 to 0.1 | CCn1ncc2c(NC3CCOCC3)c(CNC(=O)c3ccc(NC(C)=O)cc3O)c(C)nc21 [Example 276, 4-(acetylamino)-N-{[1-ethyl-6-methyl-4-(tetrahydro-2H-pyran-4-ylamino)-1H-pyrazolo[3,4-b]pyridin-5-yl]methyl}-2-hydroxybenzamide] |
